From US9067894B1, “Compound, composition, and method of activating GIRK potassium channel and use of same for treating conditions of interest” (Vanderbilt University, priority 2013, dated 2015) come the findings set out here.

Experiment [1] addresses T1, GIRK2/3 (Homo sapiens, UniProt P48051+Q92806).
T1 construct: expressed in transfected cells; host or cells: HEK-293
T1 sequence (P48051 1-423): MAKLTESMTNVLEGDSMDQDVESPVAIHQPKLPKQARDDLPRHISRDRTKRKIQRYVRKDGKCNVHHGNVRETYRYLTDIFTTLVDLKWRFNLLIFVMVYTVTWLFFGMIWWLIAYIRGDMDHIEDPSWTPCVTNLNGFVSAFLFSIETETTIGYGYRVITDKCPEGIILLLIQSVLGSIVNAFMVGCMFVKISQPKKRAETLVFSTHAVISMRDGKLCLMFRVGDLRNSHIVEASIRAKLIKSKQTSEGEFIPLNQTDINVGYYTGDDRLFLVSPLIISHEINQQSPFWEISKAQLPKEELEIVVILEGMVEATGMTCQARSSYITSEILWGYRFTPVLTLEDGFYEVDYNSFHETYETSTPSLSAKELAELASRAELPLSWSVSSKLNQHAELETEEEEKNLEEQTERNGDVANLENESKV
T1 sequence (Q92806 1-393): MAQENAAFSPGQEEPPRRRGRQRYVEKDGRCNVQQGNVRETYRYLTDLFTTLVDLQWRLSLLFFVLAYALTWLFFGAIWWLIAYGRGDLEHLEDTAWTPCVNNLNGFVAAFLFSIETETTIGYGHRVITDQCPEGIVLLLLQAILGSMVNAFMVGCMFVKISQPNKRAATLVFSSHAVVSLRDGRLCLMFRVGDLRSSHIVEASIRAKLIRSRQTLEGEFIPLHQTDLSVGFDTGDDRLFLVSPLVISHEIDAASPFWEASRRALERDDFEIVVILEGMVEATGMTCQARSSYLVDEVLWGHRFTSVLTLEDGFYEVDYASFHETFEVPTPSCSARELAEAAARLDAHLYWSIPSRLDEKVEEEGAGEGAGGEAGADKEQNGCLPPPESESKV
Put plainly: Whole-cell voltage-clamp, GIRK2/3-expressing HEK-293 cells. Type of experiment: cell-based. Conditions: cell line GIRK2-3. The text has this: Cell Line Construction and Cell Culture. HEK-293 cells co-expressing human GIRK1/2 and rat mGlu8 were generated as previously described (Niswender et al., 2008). A HEK-293 cell line (ATCC, Manassas, Va.) expressing human GIRK1 and human GIRK2 was constructed by transfecting HEK-293 cells with GIRK1 and GIRK2 (Origene, Rockville, Md.) cloned into the pBudCE4.1 vector (Life Technologies, Carlsbad, Calif.) using FuGene 6 (Promega, Madison, Wis.) transfection reagent. […]
A single-cell suspension of HEK-293 cells stably transfected with the appropriate ion channels were plated into TC-treated 35 mm polystyrene dishes at ˜15% confluence and incubated overnight in a 5% CO2 cell culture incubator at 37° C. […] Whole cell currents were recorded in 20K extracellular solution at −70 mV using a Pico 1 amplifier (Tecella, Foothill Ranch, Calif.) controlled by WINWCP 4.X (University of Strathclyde, Glasgow, Scotland, UK). […] One day after transfection, cells were plate into 35 mm polystyrene dishes, incubated and recorded as described above. […]
Voltage-clamp data were analyzed by converting current amplitudes to current density by dividing by each cell's membrane capacitance estimated from capacitance compensation. […]

A short description of experiment [2]: Pentylenetetrazol (PTZ)-induced seizure model. Type of experiment: in vivo, mouse. Conditions: mice, i.p.; VU0456810 60 mg/kg, sodium valproate 150 mg/kg; PTZ 40 mg/kg; 20 minute timeframe. The protocol: After thirty minutes, PTZ was administered intraperitoneally (i.p., 40 mg/kg). Immediately following administration of PTZ, the amount of time elapsed before the first occurrence of tremors, tonic-clonic seizures, convulsion, and death was recorded. All mice were subject to a 20-minute post-[…] cutoff.
In all cases, experiments were conducted in a blind manner with respect to the experimenters. Data were evaluated in Excel using one-tailed, unpaired Student's t-test, assuming populations with unequal variance.

In experiment [3] the target is T2, Adrenergic α1A (Rattus norvegicus, UniProt P43140).
T2 construct: Ricerca (contract assay)
The experiment is described as follows: Radioligand displacement (Ricerca). Type of experiment: binding.

Experiment [4] addresses T3, Histamine H3 (Homo sapiens, UniProt Q9Y5N1).
T3 construct: Ricerca (contract laboratory that ran the panel)
The experiment is described as follows: Radioligand displacement (Ricerca). Type of experiment: binding.

For experiment [5], the system named is Nicotinic acetylcholine. Put plainly: Radioligand displacement (Ricerca), first nicotinic entry. Conditions: 10 μM; first Nicotinic acetylcholine line. It counts as binding, human.
The target in experiment [6] is T4, Opiate (KOP) (Homo sapiens, UniProt P41145).
T4 construct: Ricerca (contract laboratory that ran the panel)
Put plainly: Radioligand displacement (Ricerca). Type of experiment: binding.

In experiment [7] the target is T5, Tachykinin NK1 (Homo sapiens, UniProt P25103).
T5 construct: Ricerca (contract panel)
Put plainly: Radioligand displacement (Ricerca). Type of experiment: binding.

T4 sequence (P41145 whole entry): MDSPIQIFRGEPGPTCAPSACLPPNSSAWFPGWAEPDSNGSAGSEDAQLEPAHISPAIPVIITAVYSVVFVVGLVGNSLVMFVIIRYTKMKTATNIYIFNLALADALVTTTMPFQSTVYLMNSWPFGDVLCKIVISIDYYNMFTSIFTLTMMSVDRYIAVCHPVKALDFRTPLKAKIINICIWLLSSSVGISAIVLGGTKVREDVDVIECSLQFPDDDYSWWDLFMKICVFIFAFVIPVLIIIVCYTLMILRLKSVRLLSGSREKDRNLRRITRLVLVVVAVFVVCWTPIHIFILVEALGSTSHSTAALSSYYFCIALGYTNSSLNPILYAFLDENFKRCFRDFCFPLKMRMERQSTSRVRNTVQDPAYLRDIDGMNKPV
T3 sequence (Q9Y5N1 whole entry): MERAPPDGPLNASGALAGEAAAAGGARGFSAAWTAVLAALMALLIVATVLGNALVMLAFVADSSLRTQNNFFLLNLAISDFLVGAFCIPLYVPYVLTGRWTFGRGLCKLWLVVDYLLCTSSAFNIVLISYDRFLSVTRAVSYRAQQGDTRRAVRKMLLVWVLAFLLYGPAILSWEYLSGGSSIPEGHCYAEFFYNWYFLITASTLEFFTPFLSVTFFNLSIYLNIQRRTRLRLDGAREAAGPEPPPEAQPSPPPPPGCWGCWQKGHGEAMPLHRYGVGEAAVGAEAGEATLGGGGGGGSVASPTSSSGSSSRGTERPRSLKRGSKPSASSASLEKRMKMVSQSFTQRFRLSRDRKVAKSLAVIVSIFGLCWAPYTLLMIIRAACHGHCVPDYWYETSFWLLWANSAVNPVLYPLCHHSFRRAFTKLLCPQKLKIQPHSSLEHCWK
T5 sequence (P25103 whole entry): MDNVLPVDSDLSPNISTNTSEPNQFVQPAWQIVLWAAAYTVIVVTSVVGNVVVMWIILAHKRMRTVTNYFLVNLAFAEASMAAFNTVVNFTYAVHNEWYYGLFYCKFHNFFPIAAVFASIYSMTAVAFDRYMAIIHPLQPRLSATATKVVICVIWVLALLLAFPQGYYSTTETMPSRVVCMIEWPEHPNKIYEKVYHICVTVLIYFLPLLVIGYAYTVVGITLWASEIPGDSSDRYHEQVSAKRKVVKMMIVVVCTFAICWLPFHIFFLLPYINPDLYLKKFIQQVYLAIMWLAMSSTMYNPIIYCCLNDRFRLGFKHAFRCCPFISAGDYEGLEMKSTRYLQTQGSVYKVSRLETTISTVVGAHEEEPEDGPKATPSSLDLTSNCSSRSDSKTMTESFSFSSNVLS
T2 sequence (P43140 whole entry): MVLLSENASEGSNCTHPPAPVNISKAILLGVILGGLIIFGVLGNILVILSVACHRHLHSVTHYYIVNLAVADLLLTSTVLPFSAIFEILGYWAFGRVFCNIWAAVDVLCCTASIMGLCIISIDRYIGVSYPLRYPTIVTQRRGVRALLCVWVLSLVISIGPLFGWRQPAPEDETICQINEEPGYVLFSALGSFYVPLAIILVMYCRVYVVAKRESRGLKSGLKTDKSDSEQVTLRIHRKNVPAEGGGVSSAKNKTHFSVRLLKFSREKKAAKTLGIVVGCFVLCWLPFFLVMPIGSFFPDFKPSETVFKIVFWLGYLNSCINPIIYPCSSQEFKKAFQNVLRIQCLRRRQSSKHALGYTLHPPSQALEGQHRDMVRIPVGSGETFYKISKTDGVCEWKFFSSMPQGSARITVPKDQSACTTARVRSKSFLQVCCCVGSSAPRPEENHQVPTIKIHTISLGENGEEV

As for `Cc1cc(NC(=O)Nc2ccc(F)c(F)c2)n(-c2ccccc2)n1` [VU0456810, 1-(3,4-difluorophenyl)-3-(3-methyl-1-phenyl-1H-pyrazol-5-yl)urea], the “EC50 Voltage Clamp” value in experiment [1] is “Inactive”. Besides, in experiment [2], the “animals experiencing convulsions from PTZ treatment” value was 5 out of 8 animals did not experience convulsions and significant decrease. In addition, the “animals surviving PTZ treatment” value in experiment [2] is 6 out of 8 animals survived and significant increase. Further, the inhibition at 10 µM in experiment [3] stood at 4%; in experiment [4], 1%; in experiment [6] it was 1%; in experiment [7], 3%. Further, the “% Inhibition” value in experiment [5] worked out at 0%.
